Measurements reported in ChEMBL document CHEMBL3045215, “Synthesis and insecticidal activity of 3,4-dihydropyrimidine-2(1H)-thiones against the pulse beetle, Callosobruchus chinensis” (2011).

How the values were obtained:
[1] = tested on: Callosobruchus chinensis; assay: Insecticidal activity against Callosobruchus chinensis adults reared on green gram assessed as insect mortality at 1000 mg/L after 24 hr; type: functional
[2] = tested on: Callosobruchus chinensis; assay: Insecticidal activity against Callosobruchus chinensis adults reared on green gram assessed as insect mortality after 24 hr; type: functional

Row | SMILES | mortality at 1000 µg/mL [1] [%] | LC50 [2] [mg/cm2]
1 | COc1ccc(C2=CC(c3ccc(F)cc3)NC(=S)N2)cc1 (configuration not stated) | 86 | 0.00304
2 | COP(=O)(OC)OC=C(Cl)Cl [DICHLORVOS] |  | 0.00243
3 | S=C1NC(c2ccc(Cl)cc2)=CC(c2ccccc2)N1 (configuration not stated) | 78 | 0.00556
4 | S=C1NC(c2ccc(Cl)cc2)=CC(c2ccc(Cl)cc2)N1 (configuration not stated) | 69 | 
5 | COc1ccc(C2=CC(c3ccc(Cl)cc3)NC(=S)N2)cc1 (configuration not stated) | 82 | 0.00175
6 | COc1ccc(C2=CC(c3ccccc3Cl)NC(=S)N2)cc1 (configuration not stated) | 68 | 
7 | S=C1NC(c2ccc(Cl)cc2)=CC(c2ccccc2Cl)N1 (configuration not stated) | 85 | 0.00524
8 | COc1ccc(C2=CC(c3ccccc3)NC(=S)N2)cc1 (configuration not stated) | 68 | 
9 | SC1=NC(c2ccccc2)=CC(c2ccccc2)N1 (configuration not stated) | 75 | 0.00795
10 | Cc1ccc(C2=CC(c3ccccc3)NC(=S)N2)cc1 (configuration not stated) | 66 | 
11 | Cc1ccc(C2=CC(c3ccc(Cl)cc3)NC(=S)N2)cc1 (configuration not stated) | 93 | 0.01227
12 | Fc1ccc(C2C=C(c3ccccc3)NC(=S)N2)cc1 (configuration not stated) | 60 | 
13 | Cc1ccc(C2=CC(c3ccccc3Cl)NC(=S)N2)cc1 (configuration not stated) | 87 | 0.00122
14 | COc1ccc(C2C=C(c3ccc(Cl)cc3)NC(=S)N2)cc1 (configuration not stated) | 40 | 
15 | S=C1NC(c2ccccc2)=CC(c2ccccc2Cl)N1 (configuration not stated) | 78 | 0.00201
16 | COc1ccc(C2C=C(c3ccccc3)NC(=S)N2)cc1 (configuration not stated) | 60 | 0.00164
17 | Cc1ccc(C2=CC(c3ccc(F)cc3)NC(=S)N2)cc1 (configuration not stated) | 68 | 
18 | S=C1NC(c2ccccc2)=CC(c2ccc(Cl)cc2)N1 (configuration not stated) | 90 | 0.00289
19 | COc1ccc(C2C=C(c3ccc(C)cc3)NC(=S)N2)cc1 (configuration not stated) | 80 | 
20 | Fc1ccc(C2C=C(c3ccc(Cl)cc3)NC(=S)N2)cc1 (configuration not stated) | 75 | 0.00461
21 | COc1ccc(C2=CC(c3ccc(OC)cc3)NC(=S)N2)cc1 (configuration not stated) | 70 | 
